*1 amine or outer side, *2 acyl side, *3 side chain or, on linkers, in order; H or OH if unused. Where a SMILES comes first, the peptide text is derived from it. Side-chain parts run from the residue outwards. [ ]: non-standard residue; d: D form. The star is where a group is joined. C20 diacid = O=C(O)CCCCCCCCCCCCCCCCCCC(=O)*; C18 diacid = O=C(O)CCCCCCCCCCCCCCCCC(=O)*; αMePhe(2-F) = C[C@](N)(Cc1ccccc1F)C(=O)O; γGlu = O=C(O)[C@H](CCC(=O)[*:2])N[*:1]; 4Pal = N[C@@H](Cc1ccncc1)C(=O)O; αMeL = CC(C)C[C@](C)(N)C(=O)O; Iva = CC[C@](C)(N)C(=O)O; Orn = NCCC[C@H](N)C(=O)O; AEEA = NCCOCCOCC(=O)O; Aib = CC(C)(N)C(=O)O
What was measured:
[1] = target: T1, human GIPR (Homo sapiens, UniProt P48546); experiment: [125I]-GIP binding, SPA with WGA beads, 0.1% bacitracin; details: geometric mean, read-out: hGIPR Ki
T1 construct: expressed in transfected cells; crude membranes
T1 sequence (P48546 22-466): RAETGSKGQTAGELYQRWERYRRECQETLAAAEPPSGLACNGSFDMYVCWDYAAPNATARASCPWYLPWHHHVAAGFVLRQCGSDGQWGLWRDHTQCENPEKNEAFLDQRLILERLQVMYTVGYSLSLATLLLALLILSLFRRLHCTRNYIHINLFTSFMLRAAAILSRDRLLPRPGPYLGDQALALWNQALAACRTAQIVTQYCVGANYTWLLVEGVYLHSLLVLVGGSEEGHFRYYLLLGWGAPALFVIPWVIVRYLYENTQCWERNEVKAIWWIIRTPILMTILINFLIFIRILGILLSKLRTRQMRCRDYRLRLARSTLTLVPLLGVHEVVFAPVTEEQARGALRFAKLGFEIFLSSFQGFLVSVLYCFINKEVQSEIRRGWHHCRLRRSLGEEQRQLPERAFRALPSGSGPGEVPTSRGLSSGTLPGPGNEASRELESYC
Summary of the method: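 Ki values are geometric means (SEM, n independent days), derived from four-parameter nonlinear regression of IC50. Membranes came from hGIPR-expressing CHO cells.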

[2] = target: T2, human GLP-1R (Homo sapiens, UniProt P43220); experiment: [125I]-GLP-1 binding, SPA with WGA beads, 0.1% bacitracin; details: geometric mean, read-out: hGLP1R Ki
T2 construct: expressed in transfected cells; crude membranes
Summary of the method: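 Binding buffer was 25 mM HEPES pH 7.4 with 2.5 mM CaCl2, 1 mM MgCl2, 0.1% (w/v) bacitracin, 0.003% Tween-20 and EDTA-free protease inhibitors. Four-parameter regression gave IC50, converted to Ki (geometric mean, SEM, n independent days).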

T2 sequence (P43220 24-463): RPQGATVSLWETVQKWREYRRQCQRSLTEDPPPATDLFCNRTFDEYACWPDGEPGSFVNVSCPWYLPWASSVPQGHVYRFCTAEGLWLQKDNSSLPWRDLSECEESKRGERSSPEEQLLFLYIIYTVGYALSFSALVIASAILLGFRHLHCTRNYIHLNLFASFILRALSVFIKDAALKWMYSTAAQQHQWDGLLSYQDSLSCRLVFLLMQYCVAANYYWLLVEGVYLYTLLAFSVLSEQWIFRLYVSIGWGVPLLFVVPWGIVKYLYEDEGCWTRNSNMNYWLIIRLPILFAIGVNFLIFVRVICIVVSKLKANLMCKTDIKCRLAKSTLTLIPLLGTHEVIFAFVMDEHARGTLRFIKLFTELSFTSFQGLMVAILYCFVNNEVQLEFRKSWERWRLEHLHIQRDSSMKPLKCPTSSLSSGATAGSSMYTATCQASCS

Structure (SMILES)	Ki [1] [nM]	Ki [2] [nM]
CC[C@H](C)[C@H](NC(=O)[C@H](CCCN)NC(=O)[C@H](CC(=O)O)NC(=O)[C@H](CC(C)C)NC(=O)[C@](C)(CC(C)C)NC(=O)[C@@H](NC(=O)[C@H](CO)NC(=O)[C@H](Cc1ccc(O)cc1)NC(=O)[C@H](CC(=O)O)NC(=O)[C@H](CO)NC(=O)[C@@H](NC(=O)[C@H](Cc1ccccc1)NC(=O)[C@@H](NC(=O)CNC(=O)[C@H](CCC(=O)O)NC(=O)C(C)(C)NC(=O)[C@@H](N)Cc1ccc(O)cc1)[C@@H](C)O)[C@@H](C)CC)[C@@H](C)CC)C(=O)N[C@@H](Cc1c[nH]cn1)C(=O)N[C@@H](CCC(N)=O)C(=O)NC(C)(C)C(=O)N[C@@H](CC(=O)O)C(=O)N[C@@H](Cc1ccccc1)C(=O)N[C@H](C(=O)N[C@@H](CCC(=O)O)C(=O)N[C@@H](Cc1ccncc1)C(=O)N[C@@H](CCCCNC(=O)COCCOCCNC(=O)COCCOCCNC(=O)CC[C@H](NC(=O)CCCCCCCCCCCCCCCCCCC(=O)O)C(=O)O)C(=O)N[C@@H](CC(C)C)C(=O)N[C@@H](CCC(=O)O)C(=O)NCC(=O)NCC(=O)N1CCC[C@H]1C(=O)N[C@@H](CO)C(=O)N[C@@H](CO)C(=O)NCC(=O)N[C@@H](C)C(=O)N1CCC[C@H]1C(=O)N1CCC[C@H]1C(=O)N1CCC[C@H]1C(=O)N[C@@H](CO)C(N)=O)C(C)C [Example 108] (H-Y[Aib]EGTFISDYSI[αMeL]LD[Orn]IHQ[Aib]DFVE[4Pal]K([AEEA-AEEA-γGlu-C20 diacid])LEGGPSSGAPPPS-NH2)	0.134	> 910
CC[C@H](C)[C@H](NC(=O)[C@H](CO)NC(=O)[C@H](Cc1ccc(O)cc1)NC(=O)[C@H](CC(=O)O)NC(=O)[C@H](CO)NC(=O)[C@@H](NC(=O)[C@H](Cc1ccccc1)NC(=O)[C@@H](NC(=O)CNC(=O)[C@H](CCC(=O)O)NC(=O)[C@@H](C)NC(=O)[C@@H](N)Cc1ccc(O)cc1)[C@@H](C)O)[C@@H](C)CC)C(=O)N[C@@H](CC(C)C)C(=O)N[C@@H](CC(C)C)C(=O)N[C@@H](CC(=O)O)C(=O)N[C@@H](CCCCN)C(=O)N[C@@H](CCCCNC(=O)COCCOCCNC(=O)COCCOCCNC(=O)CC[C@H](NC(=O)CCCCCCCCCCCCCCCCCCC(=O)O)C(=O)O)C(=O)N[C@@H](C)C(=O)N[C@@H](CCC(N)=O)C(=O)NC(C)(C)C(=O)N[C@@H](CC(=O)O)C(=O)N[C@@H](Cc1ccccc1)C(=O)N[C@H](C(=O)N[C@@H](CC(N)=O)C(=O)N[C@@H](Cc1c[nH]c2ccccc12)C(=O)N[C@@H](CC(C)C)C(=O)N[C@@H](CC(C)C)C(=O)N[C@@H](C)C(=O)N[C@@H](CCC(N)=O)C(=O)NCC(=O)N1CCC[C@H]1C(=O)N[C@@H](CO)C(=O)N[C@@H](CO)C(=O)NCC(=O)N[C@@H](C)C(=O)N1CCC[C@H]1C(=O)N1CCC[C@H]1C(=O)N1CCC[C@H]1C(=O)N[C@@H](CO)C(N)=O)C(C)C [Example 1]	0.0667	57.8
CC[C@H](C)[C@H](NC(=O)[C@H](CO)NC(=O)[C@H](Cc1ccc(O)cc1)NC(=O)[C@H](CC(=O)O)NC(=O)[C@H](CO)NC(=O)[C@@H](NC(=O)[C@H](Cc1ccccc1)NC(=O)[C@@H](NC(=O)CNC(=O)[C@H](CCC(=O)O)NC(=O)[C@@H](C)NC(=O)[C@@H](N)Cc1ccc(O)cc1)[C@@H](C)O)[C@@H](C)CC)C(=O)N[C@@H](CC(C)C)C(=O)N[C@@H](CC(C)C)C(=O)N[C@@H](CC(=O)O)C(=O)N[C@@H](CCCCN)C(=O)N[C@@H](CCCCNC(=O)COCCOCCNC(=O)COCCOCCNC(=O)CC[C@H](NC(=O)CCCCCCCCCCCCCCCCC(=O)O)C(=O)O)C(=O)N[C@@H](C)C(=O)N[C@@H](CCC(N)=O)C(=O)NC(C)(C)C(=O)N[C@@H](CC(=O)O)C(=O)N[C@@H](Cc1ccccc1)C(=O)N[C@H](C(=O)N[C@@H](CC(N)=O)C(=O)N[C@@H](Cc1c[nH]c2ccccc12)C(=O)N[C@@H](CC(C)C)C(=O)N[C@@H](CC(C)C)C(=O)N[C@@H](CCC(=O)O)C(=O)N[C@@H](CCC(N)=O)C(=O)NCC(=O)N1CCC[C@H]1C(=O)N[C@@H](CO)C(=O)N[C@@H](CO)C(=O)NCC(=O)N[C@@H](C)C(=O)N1CCC[C@H]1C(=O)N1CCC[C@H]1C(=O)N1CCC[C@H]1C(=O)N[C@@H](CO)C(N)=O)C(C)C [Example 17] (H-Y[dA]EGTFISDYSILLDKK([AEEA-AEEA-γGlu-C18 diacid])AQ[Aib]DFVNWLLEQGPSSGAPPPS-NH2)	0.0571	106
CC[C@H](C)[C@H](NC(=O)[C@H](CO)NC(=O)[C@H](Cc1ccc(O)cc1)NC(=O)[C@H](CC(=O)O)NC(=O)[C@H](CO)NC(=O)[C@@H](NC(=O)[C@](C)(CC)NC(=O)[C@@H](NC(=O)CNC(=O)[C@H](CCC(=O)O)NC(=O)C(C)(C)NC(=O)[C@@H](N)Cc1ccc(O)cc1)[C@@H](C)O)[C@@H](C)CC)C(=O)N[C@@](C)(CC(C)C)C(=O)N[C@@H](CC(C)C)C(=O)N[C@@H](CC(=O)O)C(=O)N[C@@H](CCCCN)C(=O)N[C@@H](CCCCNC(=O)COCCOCCNC(=O)COCCOCCNC(=O)CC[C@H](NC(=O)CCCCCCCCCCCCCCCCCCC(=O)O)C(=O)O)C(=O)N[C@@H](Cc1c[nH]cn1)C(=O)N[C@@H](CCC(N)=O)C(=O)NC(C)(C)C(=O)N[C@@H](CC(=O)O)C(=O)N[C@@H](Cc1ccccc1)C(=O)N[C@H](C(=O)N[C@@H](CCC(=O)O)C(=O)N[C@@H](Cc1ccncc1)C(=O)N[C@@H](CC(C)C)C(=O)N[C@@H](CC(C)C)C(=O)N[C@@H](CCC(=O)O)C(=O)N[C@H](C(=O)NCC(=O)N1CCC[C@H]1C(=O)N[C@@H](CO)C(=O)N[C@@H](CO)C(=O)NCC(=O)N[C@@H](C)C(=O)N1CCC[C@H]1C(=O)N1CCC[C@H]1C(=O)N1CCC[C@H]1C(=O)N[C@@H](CO)C(N)=O)[C@@H](C)O)C(C)C [Example 75] (H-Y[Aib]EGT[Iva]ISDYSI[αMeL]LDKK([AEEA-AEEA-γGlu-C20 diacid])HQ[Aib]DFVE[4Pal]LLETGPSSGAPPPS-NH2)	0.0626	> 902
CC[C@H](C)[C@H](NC(=O)[C@H](Cc1ccccc1)NC(=O)[C@@H](NC(=O)CNC(=O)[C@H](CCC(=O)O)NC(=O)C(C)(C)NC(=O)[C@@H](N)Cc1ccc(O)cc1)[C@@H](C)O)C(=O)N[C@@H](CO)C(=O)N[C@@H](CC(=O)O)C(=O)N[C@@H](Cc1ccc(O)cc1)C(=O)N[C@@H](CO)C(=O)N[C@H](C(=O)N[C@@](C)(CC(C)C)C(=O)N[C@@H](CC(C)C)C(=O)N[C@@H](CC(=O)O)C(=O)N[C@@H](CCCN)C(=O)N[C@@H](CCCCNC(=O)COCCOCCNC(=O)COCCOCCNC(=O)CC[C@H](NC(=O)CCCCCCCCCCCCCCCCCCC(=O)O)C(=O)O)C(=O)N[C@@H](Cc1c[nH]cn1)C(=O)N[C@@H](CCC(N)=O)C(=O)NC(C)(C)C(=O)N[C@@H](CC(=O)O)C(=O)N[C@@H](Cc1ccccc1)C(=O)N[C@H](C(=O)N[C@@H](CCC(=O)O)C(=O)N[C@@H](Cc1ccncc1)C(=O)N[C@@H](CC(C)C)C(=O)N[C@@H](CC(C)C)C(=O)N[C@@H](CCC(=O)O)C(=O)NCC(=O)NCC(=O)N1CCC[C@H]1C(=O)N[C@@H](CO)C(=O)N[C@@H](CO)C(=O)NCC(=O)N[C@@H](C)C(=O)N1CCC[C@H]1C(=O)N1CCC[C@H]1C(=O)N1CCC[C@H]1C(=O)N[C@@H](CO)C(N)=O)C(C)C)[C@@H](C)CC [Example 82] (H-Y[Aib]EGTFISDYSI[αMeL]LD[Orn]K([AEEA-AEEA-γGlu-C20 diacid])HQ[Aib]DFVE[4Pal]LLEGGPSSGAPPPS-NH2)	0.0617	388
CC[C@H](C)[C@H](NC(=O)[C@H](CO)NC(=O)[C@H](Cc1ccc(O)cc1)NC(=O)[C@H](CC(=O)O)NC(=O)[C@H](CO)NC(=O)[C@@H](NC(=O)[C@](C)(Cc1ccccc1F)NC(=O)[C@@H](NC(=O)CNC(=O)[C@H](CCC(=O)O)NC(=O)C(C)(C)NC(=O)[C@@H](N)Cc1ccc(O)cc1)[C@@H](C)O)[C@@H](C)CC)C(=O)N[C@@H](C)C(=O)N[C@@H](CC(C)C)C(=O)N[C@@H](CC(=O)O)C(=O)N[C@@H](CCCCN)C(=O)N[C@H](C(=O)N[C@@H](Cc1c[nH]cn1)C(=O)N[C@@H](CCC(N)=O)C(=O)NC(C)(C)C(=O)N[C@@H](CC(=O)O)C(=O)N[C@@H](Cc1ccccc1)C(=O)N[C@H](C(=O)N[C@@H](CCC(=O)O)C(=O)N[C@@H](Cc1ccncc1)C(=O)N[C@@H](CCCCNC(=O)COCCOCCNC(=O)COCCOCCNC(=O)CC[C@H](NC(=O)CCCCCCCCCCCCCCCCCCC(=O)O)C(=O)O)C(=O)N[C@@H](CC(C)C)C(=O)N[C@@H](CCC(=O)O)C(=O)NCC(=O)NCC(=O)N1CCC[C@H]1C(=O)N[C@@H](CO)C(=O)N[C@@H](CO)C(=O)NCC(=O)N[C@@H](C)C(=O)N1CCC[C@H]1C(=O)N1CCC[C@H]1C(=O)N1CCC[C@H]1C(=O)N[C@@H](CO)C(N)=O)C(C)C)[C@@H](C)CC [Example 112] (H-Y[Aib]EGT[αMePhe(2-F)]ISDYSIALDKIHQ[Aib]DFVE[4Pal]K([AEEA-AEEA-γGlu-C20 diacid])LEGGPSSGAPPPS-NH2)	0.0742	> 908

Source: US12723063B2, “GIPR-agonist compounds” (Eli Lilly and Company, priority 2019, dated 2026)
